Eight molecules from patent US8722629B2, “Auristatin derivatives and use thereof” (Seattle Genetics, Inc., priority 2010, dated 2014) can be followed below.

Structures are written as SMILES. Where a name gives a salt, the structure may show the parent alone. Starred links: 1 amine or outer side, 2 acyl side, 3 side chain; linkers in the order of their positions; H or OH if unused. Non-standard residues stand in square brackets, D forms with d. Residues, ends and D or L forms follow the SMILES beside them. *: point of attachment. Dolaproine = CO[C@@H]([C@@H]1CCCN1)[C@@H](C)C(=O)O; X2 = C[C@@H](c1ccccc1)[C@H](N[*:1])C(=O)[*:2]; X1 = O=C([C@]1(N[*:1])C[C@@H]1c1ccccc1)[*:2]; X4 = O=C([C@]1(N[*:1])C[C@H]1c1ccccc1)[*:2]; Dil = CC[C@H](C)[C@H](NC)[C@@H](CC(=O)O)OC; αMeF = C[C@](N)(Cc1ccccc1)C(=O)O; Oxazinan2yl(1,2) = C1CCN(*)OC1; NMeV = CN[C@H](C(=O)O)C(C)C; X3 = c1ccc2c(c1)CON(*)C2

Data set [1] deals with human renal cancer cell line 786-0. In words: Antiproliferative effect on the 786-0 RCC cell line (MTT assay). It is filed as cell-based. To be noted: Homo sapiens, 786-0, 786-0 cells, incubation 48 h to 96 h. As for the experimental part:
B-1. Determination of the Antiproliferative Effect on the 786-0 RCC Cell Line:
A defined cell number of the human renal cancer cell line 786-0 was sown in a 96-well microtiter plate in complete medium (2500 or 7000 cells/well) and incubated at 37° C./5% CO2 overnight. After 18 h, the sowing medium was replaced by serum-free medium or medium with 2% FCS. Treatment was initiated by addition of the respective test substance in varying concentration (10^−5 M to […]). The chosen incubation times were from 48 h to 96 h. Proliferation was determined with the aid of the MTT assays (ATCC, Manassas, Va., USA, catalogue No. 30-1010K). After the incubation time, the MTT reagent was incubated with the cells for 4 h, and the cells were subsequently lysed by adding the detergent overnight. The dye formed was detected at 570 nm. […] The data obtained from this test are triple determinations, and at least two independent experiments were carried out.

Data set [2] relates to human colon carcinoma cell line HT29 wt (wild type). In words: Antiproliferative effect on the HT29 wt cell line (MTT assay). The class given is cell-based. As to conditions: Homo sapiens, HT-29, HT29 wt cells, 10% FCS, incubation 48 h to 96 h. The protocol:
B-2. Determination of the Antiproliferative Effect on the HT29 Wt Cell Line:
A defined cell number of the human colon carcinoma cell line HT29 wt (wild type) was sown in a 96-well microtiter plate in complete medium (10% FCS-RPMI) (2500 cells/well) and incubated at 37° C./5% CO2 overnight. After 18 h, the sowing medium was replaced by fresh medium with 10% FCS. Treatment was initiated by addition of the respective test substance. From the substances to be investigated, dose/activity curves in a concentration range of from 10^−5 M to 10^−14 M (1:10-dilution series) were determined. The chosen incubation times were from 48 h to 96 h. Pro-liferation was determined with the aid of the MTT assays (ATCC, Manassas, Va., USA, catalogue No. 30-1010K). After the incubation time, the MTT reagent was incubated with the cells for 4 h, and the cells were subsequently lysed by adding the detergent overnight. The dye formed was detected at 570 nm. Proliferation of cells which had not been treated with test substance, but had otherwise been treated identically, was defined as 100%. The data obtained from this test are triple determinations, and at least two independent experiments were carried out.

A short description of data set [3]: Plasma stability in vitro, human plasma. The class given is in vitro ADME. The protocol: (§1) B-4. Determination of the Plasma Stability in vitro:
(§2) 1 mg of the test substance in question was dissolved in 0.5 ml of acetonitrile/DMSO (9:1). From this solution, 20 μl were removed and added to 1 ml of rat or human plasma at 37° C. (plasma of male Wistar rats with Li heparin from Harlan & Winkelmann or fresh human leukocyte-depleted plasma originating from a whole blood sample). From this plasma solution, which was shaken vigorously, 100 μl aliquots were removed immediately after addition of the sample (initial value as reference) and then after 5, 10, 30, 60, 120, 180 and 240 minutes and optionally after 24 hours and added to 300 μl of acetonitrile. The precipitated plasma proteins were removed by centrifugation at 5000 rpm for 10 minutes, and 30 μl of the supernatant were analysed by HPLC for its content of unmodified test substance. Quantification was via the area percentages of the corresponding peaks.
HPLC Method for Human Plasma:
Instrument: Agilent 1100 with DAD, binary pump, autosampler, column oven and thermostat;
column: Kromasil 100 C18, 250 mm×4 mm, 5 μm; column temperature: 45° C.; mobile phase A: 5 ml of perchloric acid/1 of water, mobile phase B: acetonitrile; gradient: 0-3 min 98% A, 2% B; 3-10 min 65% A, 35% B; 10-15 min 40% A, 60% B; 15-21 min 10% A, 90% B; 21-22 min 10% A, 90% B; 22-24 min 98% A, 2% B; 24-26 min 98% A, 2% B; flow rate: 2 ml/min; UV detection: 220 nm.
(§3) The test substance was incubated in rat or human plasma at 37° C. over a period of 5 h with gentle stirring. At different points in time (0, 2, 5, 10, 20, 30, 60, 120, 180 and 300 minutes), a 100 μl aliquot was removed. Following addition of internal standard (10 μl), the proteins were precipitated by addition of 200 μl of acetonitrile and the mixture was centrifuged in an Eppendorf centrifuge for 5 minutes. After addition of 150 μl of ammonium acetate buffer pH 3 to 150 μl of the supernatant, the content of unmodified test substance was analysed by LC/MSMS.

The nature of data set [4]: Plasma stability in vitro, rat plasma. The class given is in vitro ADME. As to conditions: 37° C.; for half-life at 39.2 µg/ml: male, Wistar, rat plasma (Li heparin), Method A (HPLC). As for the experimental part:
as §1, §2
HPLC Method for Rat Plasma:
Instrument: Agilent 1200 with DAD, binary pump, autosampler, column oven and thermostat; column: Kromasil 100 C18, 250 mm×4 mm, […]; column temperature: 45° C.; mobile phase A: 5 ml of perchloric acid/1 of water, mobile phase B: acetonitrile; gradient: 0-8 min 98% A, 2% B; 8-15 min 56% A, 44% B; […] 10% A, 90% B; 20-21 min 10% A, 90% B; […] 98% A, 2% B; […] 98% A, 2% B; flow rate: 2 ml/min; UV detection: 220 nm.
as §3

As to `CC[C@H](C)[C@@H]([C@@H](CC(=O)N1CCC[C@H]1[C@H](OC)[C@@H](C)C(=O)N[C@@H](Cc1ccccc1)C(=O)N1CCCCO1)OC)N(C)C(=O)[C@@H](NC(=O)[C@@H](NC)C(C)C)C(C)C` [Example 1, N-Methyl-L-valyl-N-[(3R,4S,5S)-3-methoxy-1-{(2S)-2-[(1R,2R)-1-methoxy-2-methyl-3-{[(2S)-1-(1,2-oxazinan-2-yl)-1-oxo-3-phenylpropan-2-yl]amino}-3-oxopropyl]pyrrolidin-1-yl}-5-methyl-1-oxoheptan-4-yl]-N-methyl-L-valinamide, trifluoroacetic acid salt] (H-[NMeV]V[Dil][Dolaproine]F-{Oxazinan2yl(1,2)}), the values for the concentration for half-maximal inhibition (IC50) in data set [1] and in data set [2] were 4 nM and 0.1 nM, respectively. Further, the “degradation in human plasma after 24 h” value in data set [3] is on record as “no degradation was observed”.
Consider `CC[C@H](C)[C@@H]([C@@H](CC(=O)N1CCC[C@H]1[C@H](OC)[C@@H](C)C(=O)N[C@H](C(=O)N1CCCCO1)[C@@H](C)c1ccccc1)OC)N(C)C(=O)[C@@H](NC(=O)[C@@H](NC)C(C)C)C(C)C` [Example 4, N-Methyl-L-valyl-N-[(3R,4S,5S)-3-methoxy-1-{(2S)-2-[(1R,2R)-1-methoxy-2-methyl-3-{[(2S,3S)-1-(1,2-oxazinan-2-yl)-1-oxo-3-phenylbutan-2-yl]amino}-3-oxopropyl]pyrrolidin-1-yl}-5-methyl-1-oxoheptan-4-yl]-N-methyl-L-valinamide, trifluoroacetic acid salt] (H-[NMeV]V[Dil][Dolaproine][X2]-{Oxazinan2yl(1,2)}), for which the IC50 in data set [1] came out at 14 nM; in data set [2] it was 0.2 nM. In data set [4] (Method B (LC/MSMS)), this molecule had a half-life of 3 h.
Regarding `CC[C@H](C)[C@@H]([C@@H](CC(=O)N1CCC[C@H]1[C@H](OC)[C@@H](C)C(=O)N[C@@]1(C(=O)N2CCCCO2)C[C@H]1c1ccccc1)OC)N(C)C(=O)[C@@H](NC(=O)[C@@H](NC)C(C)C)C(C)C` [Example 16, N-Methyl-L-valyl-N-[(3R,4S,5S)-3-methoxy-1-{(2S)-2-[(1R,2R)-1-methoxy-2-methyl-3-{[(1S,2S)-1-(1,2-oxazinan-2-ylcarbonyl)-2-phenylcyclopropyl]amino}-3-oxopropyl]pyrrolidin-1-yl}-5-methyl-1-oxoheptan-4-yl]-N-methyl-L-valinamide, trifluoroacetic acid salt] (H-[NMeV]V[Dil][Dolaproine][X4]-{Oxazinan2yl(1,2)}), the IC50 in data set [1] amounted to 8 nM. Also, the half-life at 39.2 µg/ml in data set [4] was 0.75 h.
Consider `CC[C@H](C)[C@@H]([C@@H](CC(=O)N1CCC[C@H]1[C@H](OC)[C@@H](C)C(=O)N[C@@]1(C(=O)N2Cc3ccccc3CO2)C[C@@H]1c1ccccc1)OC)N(C)C(=O)[C@@H](NC(=O)[C@@H](NC)C(C)C)C(C)C` [Example 18, N-Methyl-L-valyl-N-[(3R,4S,5S)-1-{(2S)-2-[(1R,2R)-3-{[(1S,2R)-1-(1,4-dihydro-3H-2,3-benzoxazin-3-ylcarbonyl)-2-phenylcyclopropyl]amino}-1-methoxy-2-methyl-3-oxopropyl]pyrrolidin-1-yl}-3-methoxy-5-methyl-1-oxoheptan-4-yl]-N-methyl-L-valinamide, trifluoroacetic acid salt] (H-[NMeV]V[Dil][Dolaproine][X1]-X3), for which, in data set [2], the IC50 was determined as 1.2 nM. In data set [4], this molecule yielded a half-life at 39.2 µg/ml greater than 24 h.
`CC[C@H](C)[C@@H]([C@@H](CC(=O)N1CCC[C@H]1[C@H](OC)[C@@H](C)C(=O)N[C@H](Cc1ccccc1)C(=O)N1CCCCO1)OC)N(C)C(=O)[C@@H](NC(=O)[C@@H](NC)C(C)C)C(C)C` [Example 21, N-Methyl-L-valyl-N-[(3R,4S,5S)-3-methoxy-1-{(2S)-2-[(1R,2R)-1-methoxy-2-methyl-3-{[(2R)-1-(1,2-oxazinan-2-yl)-1-oxo-3-phenylpropan-2-yl]amino}-3-oxopropyl]pyrrolidin-1-yl}-5-methyl-1-oxoheptan-4-yl]-N-methyl-L-valinamide, trifluoroacetic acid salt] (H-[NMeV]V[Dil][Dolaproine][dF]-{Oxazinan2yl(1,2)}): the “degradation in human plasma after 24 h” value in data set [3] is listed as “no degradation was observed”.
`CC[C@H](C)[C@@H]([C@@H](CC(=O)N1CCC[C@H]1[C@H](OC)[C@@H](C)C(=O)N[C@@](C)(Cc1ccccc1)C(=O)N1CCCCO1)OC)N(C)C(=O)[C@@H](NC(=O)[C@@H](NC)C(C)C)C(C)C` [Example 22, N-Methyl-L-valyl-N-[(3R,4S,5S)-3-methoxy-1-{(2S)-2-[(1R,2R)-1-methoxy-2-methyl-3-{[(2S)-2-methyl-1-(1,2-oxazinan-2-yl)-1-oxo-3-phenylpropan-2-yl]amino}-3-oxopropyl]pyrrolidin-1-yl}-5-methyl-1-oxoheptan-4-yl]-N-methyl-L-valinamide, trifluoroacetic acid salt] (H-[NMeV]V[Dil][Dolaproine][αMeF]-{Oxazinan2yl(1,2)}): the half-life at 39.2 µg/ml in data set [4] is 2 h.
For the molecule `CC[C@H](C)[C@@H]([C@@H](CC(=O)N1CCC[C@H]1[C@H](OC)[C@@H](C)C(=O)N[C@@]1(C(=O)N2CCCCO2)C[C@@H]1c1ccccc1)OC)N(C)C(=O)[C@@H](NC(=O)[C@H](C(C)C)N(C)CCCC(=O)O)C(C)C` [Example 23, N-(3-Carboxypropyl)-N-methyl-L-valyl-N-[(3R,4S,5S)-3-methoxy-1-{(2S)-2-[(1R,2R)-1-methoxy-2-methyl-3-{[(1S,2R)-1-(1,2-oxazinan-2-ylcarbonyl)-2-phenylcyclopropyl]amino}-3-oxopropyl]-pyrrolidin-1-yl}-5-methyl-1-oxoheptan-4-yl]-N-methyl-L-valinamide], the IC50 in data set [1] worked out at 11 nM; in data set [2], 0.7 nM. Also, in data set [4], the half-life at 39.2 µg/ml is greater than 24 h.
In data set [4] (Method A), `CC[C@H](C)[C@@H]([C@@H](CC(=O)N1CCC[C@H]1[C@H](OC)[C@@H](C)C(=O)N[C@@H](Cc1ccccc1)C(=O)OC)OC)N(C)C(=O)[C@@H](NC(=O)[C@@H](NC)C(C)C)C(C)C` [MMAF-OMe, Monomethylauristatin F methyl ester, reference compound] (H-[NMeV]V[Dil][Dolaproine]F-OMe) yielded a t1/2 of less than 1 min. In addition, in data set [3], the “degraded in human plasma during 24 h” value is reported as “about 20%”.
